This is an account of results in patent US20110217412A1, “CHOLESTEROL LOWERING SUPPLEMENT AND LOW CHOLESTEROL EGG PRODUCED BY USING THE SAME” (JINIS BIOPHARMACEUTICALS CO., priority 2004, published 2011).

Series [1] relates to ISA brown hens. Description: Egg laying performance of hens fed supplemented diet (egg weight, egg production). In kind it is in vivo. As to conditions: for Egg production: 6 weeks. The method, then:
(§1) Healthy ISA brown hens, 45-week old, were assigned randomly to each dietary group (control group, 8 birds; experimental group, 6 birds each). Each bird was placed in an individual cage in an environmentally controlled room (25° C., 50% relative humidity, 16L:8D). The hens were allowed for 2 weeks in which to adapt to the feed with no additives and the housing. Control birds were fed a commercial diet based on corn and soybean meal (Table 1), while birds in experimental groups were fed diets supplemented with 0.003 or 0.03% of compactin (Sigma Aldrich Korea) for 6 weeks. Feed and water were provided ad libitum throughout the experiment. Feed consumption, egg production and egg weight were recorded daily. Egg production was expressed as percent hen day production; (100×number of eggs laid)/(number of hens×days).
The effects of 0.003% or 0.03% compactin on the laying performance of 45-week old ISA brown hens were investigated (Table 2). Egg weight was maintained at more than 60 grams after 6 weeks of oral administrations of compactin at both doses. […] Maintenance of laying performance with compactin feeding is of contrast to the previous art in which atorvastatin reduced egg production down to 70% after feeding for 5-week.
Egg production and yolk cholesterol analysis was performed with 0.003 and 0.03% pravastatin administered group with the same procedure as described in Example 1 above. Hen performance was investigated by measuring egg weight and egg production as in Table 4. Pravastatin group had maintained above 80% of egg production rate after 6-week administration, same as control.
(§2) Egg production and yolk cholesterol analysis was performed with the same procedure as described in Example 1 above except 0.5 and 1% of Streptomyces cell precipitates and bioconversion reaction broth were administered instead of compactin. Hen performance was investigated by measuring egg weight and egg production as in Table 6.

In series [2] the test system is ISA brown hens. Nature of the series: Egg cholesterol analysis (yolk weight, gas chromatography of yolk cholesterol) of hens fed supplemented diet. Format: in vivo. The settings on record: compared to control. How it is done:
as §1
For egg cholesterol analysis, eggs from each bird were collected and egg yolk was separated, weighed, and sampled for analysis. Lipids from eggs were extracted by the method of Folch et al. (1957). Briefly, one gram of sample was saponified with 3 mL of 33% KOH and incubated with 30 mL of 95% methanol in a 65° C. water bath for 90 min. After saponification, 10 mL hexane and 3 mL water were added, followed by vigorous shaking for 10 min. 5α-cholestan (Sigma C-8300) was used as an internal standard. Cholesterol content was determined by a gas chromatography (Shimadzu, Japan) using column VB-1 (30 m×0.25 mm×0.25 μm, VICI Inc.) with a split ratio of 100:1 and nitrogen as carrier gas for a column flow rate of 0.54 mL/min. Injector, column, and detector temperatures were 275° C., 290° C., and 340° C., respectively. […] The average control yolk weight was 17.2 g. […] Administration of compactin caused the significant reduction in yolk weight, compared to the control with 12.8 mg cholesterol per gram of yolk. When expressed as total yolk cholesterol content, percentage changes compared to that of control were 16% and 29% at 0.003% and 0.03% compactin, respectively.
Streptomyces cell precipitates and cell culture broth after compactin bioconversion were used as cholesterol lowering supplements respectively. First, compactin bioconversion was done as following. Single colony of streptomyces carbophilus was inoculated into 100 ml R2YE in 500 ml erlenmyer flask and incubated at 27° C. at 200 rpm for 3 days. After incubation, 10 ml of seed culture was added to 100 ml of conversion media (glucose 2.0%, corn steep liquor 0.2%, K2HPO4 0.15%, yeast extract 0.1%, MgSO4.7H2O 0.15%, ZnSO47H2O 0.001%, NH4NO3 0.1%, peptone 0.1%, pH 7.0) in 500 ml flask and incubated at 27° C. at 200 rpm for 3 days. Then, filter sterilized compactin salt was added into culture up to 0.1% weight of culture and incubated for another 4 days. After bioconversion reaction, culture media was analyzed by TLC to confirm the presence of compactin and pravastatin. This culture was freeze dried for 24 hours and then used as cholesterol lowering supplements. Also Streptomyces cells were obtained from bioconversion reaction by centrifugation at 3,000×g. Streptomyces cell precipitates recovered as pellets was dried at 60° C. and used as cholesterol lowering supplements. Streptomyces cell precipitates as well as bioconversion reaction broth was dried and used as cholesterol lowering supplements as shown in Example 1. Egg production and cholesterol amount were measured afterward.
as §2

The conditions of series [3]: cited from earlier work.
The subject of series [4] is hens. As to conditions: cited from earlier work.
Series [5] has as its system hens. As to conditions: cited from earlier work. This is another data set of the same source.
Where [6] appears, read: 0.003 weight % pravastatin in feed.
Setting [7] is: 0.03 weight % pravastatin in feed.

Consider `CC[C@H](C)C(=O)O[C@H]1CCC=C2C=C[C@H](C)[C@H](CC[C@@H]3C[C@@H](O)CC(=O)O3)[C@H]21` [Compactin, compactin], for which the “Difference in egg production compared to the control group” value with ISA brown hens [1] (in vivo) is “did not cause any difference in egg production”. For the same compound, in the series with ISA brown hens [1] (in vivo), the “Reduction rates in the production of eggs” value is listed as “at most 5%”. For the same compound, the Cholesterol content change with ISA brown hens [2] (0.003 weight % compactin in feed) is −16%; in the series with ISA brown hens [2] (0.003 weight % compactin in feed, listed as compactin), -16%; with ISA brown hens [2] (0.03 weight % compactin in feed), −29%; in the series with ISA brown hens [2] (0.03 weight % compactin in feed, listed as compactin), -29%. The “Toxicity in clinical trials” value in series [3] was “serious toxicity”.

As for `CC(C)c1c(C(=O)Nc2ccccc2)c(-c2ccccc2)c(-c2ccc(F)cc2)n1CC[C@@H](O)C[C@@H](O)CC(=O)O` [atorvastatin], the “Effect on the cholesterol content in eggs” value in the series on hens [4] (according to U.S. Pat. No. 6,177,121) was “distinctly effective”. In the series with hens [5] (2, 3 and 4 weeks after administration, Table 2 of U.S. Pat. No. 6,177,121), the “Reduction of egg production versus control group” value is given as 20%. The “Egg production reduced down to” value in the series on hens [5] (after feeding for 5-week) is recorded as 70%.

As to `CC[C@H](C)C(=O)O[C@H]1C[C@@H](C)C=C2C=C[C@H](C)[C@H](CC[C@@H]3C[C@@H](O)CC(=O)O3)[C@H]21` [lovastatin], the “Reduction in cholesterol content in eggs” value in the series on hens [4] (dose of 0.03%) was approximately 3.9%.

On to pravastatin, for which the Egg production in the series on ISA brown hens [1] (setting [6]) came to 84%; with ISA brown hens [1] (setting [7]), 82%. The “Egg production rate maintained” value in the series on ISA brown hens [1] (after 6-week administration of pravastatin (0.003 and 0.03%)) is “above 80%”. The Cholesterol content change in the series with ISA brown hens [2] (setting [6]) is listed as −6%; in the series on ISA brown hens [2] (setting [7]), −24%.
